Laboratory results reported in patent publication US20090312406A1, “COUMARIN COMPOUNDS AND THEIR USE FOR TREATING VIRAL INFECTION” (priority 2008, published 2009).
Read-outs that look alike come from different tables or passages of the source.

Tested on: Influenza A/WSN/33 (H1N1) virus
Assay: In vitro anti-influenza virus assay (neutralization test), cytopathic effect on MDCK cells
Assay type: cell-based
Conditions: MDCK cells, 72 h, read-out: IC50 (concentration reducing virus-induced cytopathic effect by 50%)
Method: Anti-influenza activities of the coumarin compounds were evaluated by measuring the ability of a test compound to inhibit the cytopathic effect induced by an influenza virus on MDCK cells. The 96-well tissue culture plates were seeded with 200 μL of MDCK cells at a concentration of 1.1×10^5 cells/mL in DMEM with 10% fetal bovine serum (FBS). The plates were incubated for 24-30 h at 37° C. and were used at about 90% confluency. Influenza A/WSN/33 (H1N1) virus (100 TCID50) was added to the cells and incubated at 35° C. for 1 h. After adsorption, the infected cell plates were overlaid with 50 μL of DMEM plus 2% FBS and a test compound with different concentrations. The plate was incubated at 35° C. for 72 h. At the end of incubation, the plates were fixed by the addition of 100 μL of 4% formaldehyde for 1 h at room temperature. After the removal of formaldehyde, the plates were stained with 0.1% crystal violet for 15 min at room temperature. The plates were washed and dried, and the density of the well was measured at 570 nm. The concentration required for a test compound to reduce the virus-induced cytopathic effect (CPE) by 50% relative to the virus control was expressed as IC50.
Compounds 1 and 95 were also tested on various influenza virus strains. Amantadine or Relenza was also tested for comparison. IC50 is defined as the concentration required for a test compound to reduce the virus-induced cytopathic effect (CPE) by 50% relative to the virus control.

[1] = lower bound (10 nM), upper in μM

| SMILES | IC50 (ranges given) [nM] | IC50 [1] [nM] |
| --- | --- | --- |
| Cc1cc(=O)oc2c1ccc1oc(C(=O)c3cccc(OCCCN4CCCCC4)c3)c(-c3ccccc3)c12 [Compound 84] | 6000 to 25000 |  |
| COc1ccc(-c2c(C(=O)c3ccccc3)oc3ccc4c(C)cc(=O)oc4c23)cc1 [Compound 248] | 6000 to 25000 |  |
| Cc1cc(=O)oc2c1ccc1oc(C(=O)c3ccc(F)cc3F)c(-c3ccccc3)c12 [Compound 59] |  | 10 to 999 |
| Cc1ccc(C(=O)c2oc3ccc4c(C)cc(=O)oc4c3c2-c2ccccc2)cc1 [Compound 41] |  | 10 to 999 |
| Cc1c(C)c2ccc3oc(C(=O)c4ccccc4)c(-c4ccccc4)c3c2oc1=O [Compound 6] |  | 10 to 999 |
| C=CCOc1cccc(C(=O)c2oc3ccc4c(C)cc(=O)oc4c3c2-c2ccccc2)c1 [Compound 76] |  | 10 to 999 |
| Cc1cc(=O)oc2c1ccc1oc(C(=O)c3ccccc3)c(-c3ccccc3Br)c12 [Compound 138] |  | 10 to 999 |
| Cc1cc(=O)oc2c1ccc1oc(C(=O)c3cccc(OCCCCN4CCOCC4)c3)c(-c3ccccc3)c12 [Compound 82] | 1000 to 5900 |  |
| COc1cccc(C(=O)c2oc3ccc4c(C)cc(=O)oc4c3c2-c2cccc(Br)c2)c1 [Compound 256] |  | 10 to 999 |
| CCCCOc1cccc(C(=O)c2oc3ccc4c(C)cc(=O)oc4c3c2-c2ccccc2)c1 [Compound 70] |  | 10 to 999 |
| Cc1cc(=O)oc2c1ccc1oc(C(=O)c3ccccc3)cc12 [Compound 153] | 1000 to 5900 |  |
| Cc1cc(=O)oc2c1ccc1oc(C(O)c3ccccc3)c(-c3cccc(C#N)c3)c12 (stereo not shown) [Compound 234] |  | 10 to 999 |
| Cc1ccsc1C(=O)c1oc2ccc3c(C)cc(=O)oc3c2c1-c1ccccc1 [Compound 100] |  | 10 to 999 |
| Cc1cc(=O)oc2c1ccc1oc(C(O)c3ccccc3)c(-c3ccccc3)c12 (stereo not shown) [Compound 172] |  | 10 to 999 |
| Cc1cc(=O)oc2c1ccc1oc(C(=O)c3ccccc3)c(-c3cccc(Cl)c3)c12 [Compound 136] | 1000 to 5900 |  |
| C=CC(=O)Oc1cccc(C(=O)c2oc3ccc4c(C)cc(=O)oc4c3c2-c2ccccc2)c1 [Compound 182] | 1000 to 5900 |  |
| Cc1cc(=O)oc2c1ccc1oc(C(=O)c3ccccc3)c(C3CCCCC3)c12 [Compound 165] | 1000 to 5900 |  |
| Cc1cc(=O)oc2c1ccc1oc(C(=O)c3cc(F)ccc3F)c(-c3ccccc3)c12 [Compound 61] |  | 10 to 999 |
| O=C(c1ccccc1)c1oc2ccc3c4ccccc4c(=O)oc3c2c1-c1ccccc1 [Compound 22] | 6000 to 25000 |  |
| C#CCOc1cccc(C(=O)c2oc3ccc4c(C)cc(=O)oc4c3c2-c2ccccc2)c1 [Compound 233] |  | 10 to 999 |
| Cc1cc(=O)oc2c1ccc1oc(C(=O)c3ccc(F)cc3)c(-c3ccccc3)c12 [Compound 46] |  | 10 to 999 |
| COc1cccc(C(=O)c2oc3ccc4c(C)cc(=O)oc4c3c2-c2cccc(F)c2)c1 [Compound 246] |  | 10 to 999 |
| COc1ccc(C(=O)c2oc3ccc4c(C)cc(=O)oc4c3c2-c2ccccc2)cc1 [Compound 32] | 1000 to 5900 |  |
| O=C(c1ccccc1)c1oc2ccc3c(C(F)(F)F)cc(=O)oc3c2c1-c1ccccc1 [Compound 11] |  | 10 to 999 |

| SMILES | IC50 (ranges given) [nM] | IC50 [1] [nM] |
| --- | --- | --- |
| Cc1ccc(-c2c(C(=O)c3ccccc3)oc3ccc4c(C)cc(=O)oc4c23)cc1 [Compound 142] |  | 10 to 999 |
| CCOc1cccc(C(=O)c2oc3ccc4c(C)cc(=O)oc4c3c2-c2cccc(Br)c2)c1 [Compound 260] |  | 10 to 999 |
| Cc1cc(=O)oc2c1ccc1oc(C(=O)c3ccccc3)c(/C=C/c3ccccc3)c12 [Compound 161] | 1000 to 5900 |  |
| Cc1cc(=O)oc2c1ccc1oc(Cc3ccccc3)c(-c3ccccc3)c12 [Compound 173] |  | 10 to 999 |
| Cc1cc(=O)oc2c1ccc1oc(C(=O)c3ccccc3)c(C)c12 [Compound 154] | 1000 to 5900 |  |
| CC(=O)OCCCCCCOc1cccc(C(=O)c2oc3ccc4c(C)cc(=O)oc4c3c2-c2ccccc2)c1 [Compound 237] |  | 10 to 999 |
| Cc1cc(=O)oc2c1ccc1oc(C(=O)c3ccccc3)c(-c3cc(Br)cc(Br)c3)c12 [Compound 150] |  | 10 to 999 |
| Cc1cc(=O)oc2c1ccc1oc(C(=O)c3ccccc3)c(-c3cccc4ccccc34)c12 [Compound 206] |  | 10 to 999 |
| CCCCCCCCOc1cccc(C(=O)c2oc3ccc4c(C)cc(=O)oc4c3c2-c2ccccc2)c1 [Compound 243] | 6000 to 25000 |  |
| Cc1cc(=O)oc2c1ccc1oc(C(=O)c3ccccc3Cl)c(-c3ccccc3)c12 [Compound 47] |  | 10 to 999 |
| Cc1cc(=O)oc2c1ccc1oc(C(=O)c3cccc(OCCCCI)c3)c(-c3ccccc3)c12 [Compound 236] | 1000 to 5900 |  |
| Cc1cc(=O)oc2c1ccc1oc(C(=O)c3cccc(Cl)c3)c(-c3ccc(F)cc3)c12 [Compound 222] |  | 10 to 999 |
| Cc1cc(=O)oc2c1ccc1oc(C(=O)c3ccccc3)c(-c3cccs3)c12 [Compound 160] |  | 10 to 999 |
| Cc1cc(=O)oc2c1ccc1oc(C(=O)c3ccccc3)c(-c3cccc(C(=O)O)c3)c12 [Compound 207] | 1000 to 5900 |  |
| Cc1cc(=O)oc2c1ccc1oc(C(=O)c3cccc(OCCCN4CCOCC4)c3)c(-c3ccccc3)c12 [Compound 81] | 1000 to 5900 |  |
| CCCc1c(C(=O)c2ccccc2)oc2ccc3c(C)cc(=O)oc3c12 [Compound 155] |  | 10 to 999 |
| Cc1cc(=O)oc2c1ccc1oc(C(=O)c3ccccc3)c(-c3cc(Cl)cc(Cl)c3)c12 [Compound 149] | 1000 to 5900 |  |
| C=CCCOc1cccc(C(=O)c2oc3ccc4c(C)cc(=O)oc4c3c2-c2ccccc2)c1 [Compound 77] |  | 10 to 999 |
| Cc1cc(=O)oc2c1ccc1oc(C(=O)c3cccc(OP(=O)(O)O)c3)c(-c3ccccc3)c12 [Compound 249] | 1000 to 5900 |  |
| Cc1cc(=O)oc2c1ccc1oc(C(=O)c3cc(F)ccc3F)c(-c3ccc(F)cc3)c12 [Compound 221] | 1000 to 5900 |  |
| Cc1cc(=O)oc2c1ccc1oc(C(=O)c3cccc(OCCCCl)c3)c(-c3ccccc3)c12 [Compound 74] |  | 10 to 999 |
| CC(=O)OCC1OC(OCCCOc2cccc(C(=O)c3oc4ccc5c(C)cc(=O)oc5c4c3-c3ccccc3)c2)C(OC(C)=O)C(OC(C)=O)C1OC(C)=O (stereo not shown) [Compound 196] | 6000 to 25000 |  |
| Cc1cc(=O)oc2c1ccc1oc(C(=O)c3ccc(Cl)c(Cl)c3)c(-c3ccccc3)c12 [Compound 58] | 1000 to 5900 |  |
| Cc1cc(=O)oc2c1ccc1oc(C(=O)c3ccc(Br)s3)c(-c3ccccc3)c12 [Compound 98] |  | 10 to 999 |

| SMILES | IC50 (ranges given) [nM] | IC50 [1] [nM] |
| --- | --- | --- |
| CCCc1cc(=O)oc2c1ccc1oc(C(=O)c3ccccc3)c(-c3ccccc3)c12 [Compound 14] |  | 10 to 999 |
| Cc1cc(=O)oc2c1ccc1oc(C(=O)c3cccc(OC(=O)C4CC4)c3)c(-c3ccccc3)c12 [Compound 181] | 1000 to 5900 |  |
| Cc1cc(=O)oc2c1ccc1oc(C(=O)c3cc(Cl)sc3Cl)c(-c3ccccc3)c12 [Compound 97] | 1000 to 5900 |  |
| O=C(c1ccccc1)c1oc2ccc3c4c(c(=O)oc3c2c1-c1ccccc1)CCC4 [Compound 20] |  | 10 to 999 |
| Cc1cc(=O)oc2c1ccc1oc(C(=O)c3ccco3)c(-c3ccccc3)c12 [Compound 92] |  | 10 to 999 |
| CC(=O)Oc1cccc(C(=O)c2oc3ccc4c(C)cc(=O)oc4c3c2-c2ccccc2)c1 [Compound 180] |  | 10 to 999 |
| Cc1cc(=O)oc2c1ccc1oc(C(=O)c3cccs3)c(-c3cccc(Br)c3)c12 [Compound 259] |  | 10 to 999 |
| Cc1cc(=O)oc2c1ccc1oc(C(=O)c3ccc(F)c(F)c3)c(-c3ccccc3)c12 [Compound 60] |  | 10 to 999 |
| Cc1cc(=O)oc2c1ccc1oc(C(=O)c3ccccc3)c(-c3cccc(Br)c3)c12 [Compound 139] |  | 10 to 999 |
| Cc1cc(=O)oc2c1ccc1oc(C(=O)c3cccc(OCCCO)c3)c(-c3ccccc3)c12 [Compound 185] | 1000 to 5900 |  |
| Cc1cc(=O)oc2c1ccc1oc(C(=O)c3ccccc3)c(-c3ccco3)c12 [Compound 159] |  | 10 to 999 |
| Cc1cc(=O)oc2c1ccc1oc(C(=O)c3cccc(OCCCCO)c3)c(-c3ccccc3)c12 [Compound 186] |  | 10 to 999 |
| Cc1cc(=O)oc2c1ccc1oc(C(=O)c3cccc(OCCCl)c3)c(-c3ccccc3)c12 [Compound 73] | 1000 to 5900 |  |
| Cc1cc(=O)oc2c1ccc1oc(C(=O)c3ccccc3)c(-c3cccc([N+](=O)[O-])c3)c12 [Compound 144] |  | 10 to 999 |
| Cc1cc(=O)oc2c1ccc1oc(C(=O)c3cccc(OCCN4Cc5ccccc5C4)c3)c(-c3ccccc3)c12 [Compound 241] | 1000 to 5900 |  |
| Cc1cc(=O)oc2c1ccc1oc(C(=O)c3ccccc3)c(-c3ccc(Cl)cc3)c12 [Compound 137] |  | 10 to 999 |
| Cc1cc(=O)oc2c1ccc1oc(C(=O)c3cccs3)c(-c3cccs3)c12 [Compound 257] |  | 10 to 999 |
| CCc1cc(=O)oc2c1ccc1oc(C(=O)c3ccccc3)c(-c3ccccc3)c12 [Compound 9] |  | 10 to 999 |
| C=CCCCOc1cccc(C(=O)c2oc3ccc4c(C)cc(=O)oc4c3c2-c2ccccc2)c1 [Compound 78] |  | 10 to 999 |
| Cc1cc(=O)oc2c1ccc1oc(C(=O)O)c(-c3ccccc3)c12 [Compound 205] | 1000 to 5900 |  |
| CCCCCC#CC(=O)Oc1cccc(C(=O)c2oc3ccc4c(C)cc(=O)oc4c3c2-c2ccccc2)c1 [Compound 203] | 1000 to 5900 |  |
| Cc1cc(=O)oc2c1ccc1oc(C(=O)c3cccc(N)c3)c(-c3ccccc3)c12 [Compound 67] | 1000 to 5900 |  |
